Test results published in publication PMC9266351, “Degradation and Detoxification of Chlorophenols with Different Structure by LAC-4 Laccase Purified from White-Rot Fungus Ganoderma lucidum” (International Journal of Environmental Research and Public …, 2022).

What was measured:
Assay type in all cases: biochemical, Ganoderma lucidum
LAC-4 laccase [1] = test system: T1, LAC-4 laccase; assay: spectrophotometric oxidation at […] nm; non-linear Michaelis-Menten fit; details: 50 mM acetate pH 5.0, 30 °C; 0.1-1.0 mM substrate, 0.01 U/mL enzyme
T1 construct: native secreted enzyme purified from culture filtrate (GYP medium, CuSO4-induced; ammonium sulfate, anion exchange, hydrophobic chromatography); about 56 kDa by SDS-PAGE

LAC-4 laccase [2] = test system: T1, LAC-4 laccase; assay: degradation over […] min; Lineweaver-Burk plot; details: 50 mM acetate pH 5.0, 30 °C; 0.1-8 mM substrate, 1 U/mL enzyme
LAC-4 laccase [3] = test system: T1, LAC-4 laccase; assay: spectrophotometric oxidation at […] nm; non-linear Michaelis-Menten fit; details: 50 mM acetate pH 5.0, 30 °C; 0.01-0.1 mM substrate, 0.01 U/mL enzyme
LAC-4 laccase [4] = test system: T1, LAC-4 laccase; assay: degradation over […] min; Lineweaver-Burk plot; details: 50 mM acetate pH 5.0, 30 °C; 0.1-8 mM substrate, 1 U/mL enzyme; remark: listed apart in the source
LAC-4 laccase [5] = test system: T1, LAC-4 laccase; assay: spectrophotometric oxidation at […] nm; non-linear Michaelis-Menten fit; details: 50 mM acetate pH 5.0, 30 °C; 0.01-0.06 mM substrate (all below Km), 0.01 U/mL enzyme

Work on COc1ccccc1O [guaiacol] yielded a Km (LAC-4 laccase [1]) of 97 µM.
Oc1c(Cl)cccc1Cl [2,6-DCP] gave a Km (LAC-4 laccase [2]) of 3640 µM.
For CCn1c(=NN=c2sc3cc(S(=O)(=O)O)ccc3n2CC)sc2cc(S(=O)(=O)O)ccc21 [ABTS], the Km (LAC-4 laccase [3]) was 75 µM.
With Oc1c(Cl)ccc(Cl)c1Cl [2,3,6-TCP] the Km (LAC-4 laccase [4]) was 4880 µM.
With COc1cccc(OC)c1O [2,6-DMP] the Km (LAC-4 laccase [5]) was 803 µM.
